Data as given in patent publication US8999937B2, “Glucocorticoid induced leucine zipper mimetics as therapeutic agents in multiple sclerosis” (Indiana University Research and Technology Corporation, priority 2011, dated 2015).
Entries after “also recorded” stand apart in the source; their conditions may differ.

Key:
[1] = system: CD4+ LNC from PLP primed SJL/J mice; experiment: In vitro cytokine secretion (ELISA) by PLP139-151 restimulated CD4+ cells from primed SJL/J mice; assay type: cell-based, mouse; details: for IFN-γ secretion / IL-10 secretion / IL-12 secretion / IL-17 secretion: CD4+ LNC, PLP restimulated, 48 h; for IFN-γ secretion / IL-10 secretion / IL-12 secretion: vs untreated/control peptide; for IL-17 secretion: vs untreated/control-P; for cytokine secretion (INF-γ and IL-12p40) by in-vivo primed T cells: CD4+ splenocytes, PLP 40 μg/ml, 24 hrs, FIG. 5
Protocol: CD4+ splenocytes isolated 10 days post-immunization from SJL mice induced EAE were co-cultured with irradiated syngenic APC and restimulated with PLP (40 μg/ml) in the presence of complex of chariot peptide with rGILZ protein/dexamethasone/GILZ-P at indicated concentrations. Supernatants collected after 24 hrs were assessed for INF-γ and IL-12p40 by ELISA. *=p<0.05 when compared to cells +PLP.
Supernatants from separate CD4+LNC cultured similarly collected at 24 hrs and 48 hrs were stored at −20° C. The levels of cytokines, IL-10, IL-12, and interferon gamma (IFN-γ) were determined by ELISA, using OptEIA kits, according to the manufacturer's recommendations (BD PharMingen). Group comparisons were made by one way analysis of variance (ANOVA) followed by Tukey's post-hoc.
(§1) Supernatants collected at 24 and 48 h were assessed for specific cytokines using the OptEIA kits (BD Biosciences). Proliferation assays included parallel cultures for 72 h with a final 18-h pulse with [^3H]thymidine measured by liquid scintillation counting (Microbeta, Turku, Finland).

[2] = system: T-bet, GATA-3, IL-10 and FoxP3 mRNA; experiment: Quantitative RT-PCR in CD4+ LNC from treated R-EAE mice; assay type: in vivo, mouse; details: for GATA-3 mRNA / T-bet mRNA: mice treated on day 0, re-stimulation with PLP139-151; for FoxP3 mRNA / IL-10 mRNA: mice treated on day 0, vs vehicle/control-P
Protocol: 50 ng of cDNA from CD4+LNC were used for quantitative measurement of message for (A) T-bet, (B) GATA-3, (C) IL-10, and (D) FoxP3 by quantitative RT-PCR. (E), gel electrophoresis of representative products. * and # represent p<0.05 by analysis of variance as compared with vehicle or control peptide-treated group, respectively.

[3] = system: activated p65 NF-κB subunit; experiment: NF-κB assay (TransAM): p65 DNA binding in nuclear extracts; assay type: cell-based, mouse; details: CD4+ LNC restimulated with PLP139-151, 24 h
Protocol: Nuclear and cytoplasmic protein fractions of CD4+ T cells obtained using a nuclear extraction kit are assessed for NF-κB activation and p65 nuclear translocation using Trans^AM NF-κB kits (Active Motif, Carlsbad, Calif.). The effect of exogenous GILZ and GILZ mimetics on phosphorylation and proteolytic degradation of IκB proteins is determined by Western blot analysis of nuclear and cytoplasmic protein fractions from CD4+ T cells pretreated with GILZ/chariot peptide complex prior to stimulation.
5 μg of nuclear extracts isolated from PLP139-151 restimulated CD4+ cells from R-EAE mice were incubated in a 96-well plate coated with oligonucleotides containing the NF-κB consensus binding site. The activated NF-κB bound to DNA was detected by anti-p65 antibody followed by a peroxidase-coupled secondary antibody and substrate using the TransAM kit protocol (Active Motif).

[4] = system: CD4+ LNC from PLP primed SJL/J mice; experiment: In vitro proliferation ([3H]-thymidine) of PLP139-151 restimulated CD4+ LNC from primed SJL/J mice; assay type: cell-based, mouse; details: for proliferative response, in words: vs PLP139-151 alone or vs r-GILZ
Protocol: CD4+ lymph node cells (LNC) isolated from the draining lymph nodes harvested from SJL/J mice 10 days after immunization with PLP139-151 were cultured in 96-well plates at […] in complete RPMI and restimulated with the PLP peptide (40 μg/ml) for 72 h, including a final 16-h pulse with [^3H]-thymidine. […] Separate cultures stimulated with ova (40 μg/ml) served as control for antigen specificity. Irradiated splenocytes from syngenic mice were used as antigen presenting cells (APC). Cultures were harvested onto glass fiber mats using a Skatron harvester (Skatron, Sterling, Va.), and the levels of [^3H]-thymidine incorporation were determined by liquid scintillation counting (Microbeta; Wallac, Turku, Finland). Results were confirmed by replicate experiments. Data are expressed as Δcpm (counts/min incorporated in antigen-stimulated culture-counts/min incorporated by control unstimulated culture).
as §1

T-bet and GATA-3 mRNA = experiment: Real time PCR for T-bet and GATA-3 in CD4+ LNC restimulated in vitro; assay type: cell-based, mouse; details: CD4+ LNC restimulated in vitro with PLP139-151
Protocol: Intracellular delivery of r-GILZ was detected using […]-labeled anti-DDK mAb in permeabilized cells and measured by FACS Calibur. […] The delivery efficiency was assessed by mean fluorescence intensity (D). […] (F)-(I) show supernatants collected at 48 h were assessed for IFN-γ (F), IL-12 (G), IL-17 (H), and IL-10 (I) by ELISA. […] Five micrograms of nuclear extracts were tested for binding of the activated p65 NF-κB subunit to an NF-κB consensus sequence using the TransAM NF-κB ELISA kit. The p65 DNA binding activity was calculated as the ratio of absorbance from PLP139-151-stimulated cells to that of unstimulated cells. Values are the average±S.D. performed 3 times in duplicate. (K)-(L) show real time PCR for T-bet (K) and GATA-3 (L) was performed using 50 ng of cDNA isolated from CD4+LNC of R-EAE mice re-stimulated in vitro with PLP139-151 under the indicated conditions.
Proliferative responses of CD4+ lymph node cells and splenocytes harvested 10 days post-induction upon re-stimulation in vitro with PLP^139-151 in the presence or absence of chariot peptide complexed with purified GILZ protein and/or GILZ mimetics at varying concentrations is determined as described. IL-2, TNF-α, IFN-γ, IL12-p40, IL-17, IL-4, IL-5, IL-10 and TGF-β) of the cells following similar in vitro restimulation is determined by ELISA. Measurement of relative quantities of Th1 and Th2 specific transcription factors is determined by real time PCR using ABI primers.

[5] = system: CD4+ splenocytes from R-EAE mice; experiment: Ex vivo proliferation of CD4+ splenocytes from treated R-EAE mice; assay type: in vivo, mouse; details: for proliferative responses (mean Δcpm) to PLP139-151: mice treated on day 0, cells 45 days post-immunization; for average proliferative response of unstimulated CD4+ splenocytes: in cpm
Protocol: Data represent average±S.D. from two experiments (n=9/group). (C)-(H) show GILZ-peptide treatment suppresses Th1 cytokines in R-EAE. […] C, proliferative responses of CD4+ splenocytes are plotted as Δcpm±S.E. #, p<0.05 as compared with the responses of cells from vehicle-treated mice. Supernatant collected at 48 h from separate CD4+ splenocyte cultures were assessed for (D) IL-12, (E) IFN-γ, (F) IL-17, (G) IL-10, and (H) TGF-β by ELISA. * and # represent p<0.05 as compared with vehicle or control peptide-treated groups, respectively.
as §1

| Substance | IFN-γ secretion [1] | IL-10 secretion [1] | IL-12 secretion [1] | IL-17 secretion [1] | cytokine secretion (INF-γ and IL-12p40) by in-vivo primed T cells [1] | GATA-3 mRNA [2] | T-bet mRNA [2] | FoxP3 mRNA [2] | IL-10 mRNA [2] | p65-specific DNA binding activity in nuclear extracts [3] | proliferative response, in words [4] | GATA-3 mRNA (T-bet and GATA-3 mRNA) | T-bet mRNA (T-bet and GATA-3 mRNA) | proliferative responses (mean Δcpm) to PLP139-151 [5] | average proliferative response of unstimulated CD4+ splenocytes ([5]; mice treated on day 0) | further results |
| --- | --- | --- | --- | --- | --- | --- | --- | --- | --- | --- | --- | --- | --- | --- | --- | --- |
| Ac-CLSPEEPAPESPQVPEAPGGSAV-NH2 [GILZ-P] | significantly lower | elevated | significantly lower | significantly lower | suppresses | elevated | significantly lower | significantly higher | significantly higher | significantly decreased | significantly decreased proliferative response | elevated | significantly decreased | 5,733±208 cpm | 2,376±602 | IFN-γ secretion ([1]; listed as GILZ-peptide): significantly decreased; IL-12 secretion ([1]; listed as GILZ-peptide): significantly decreased; proliferative response (mean Δcpm), maximum inhibition ([4]; 250 μM GILZ-P with Pep-1): 1404±106 cpm; proliferative response (Δcpm) ([4]; GILZ peptide in the absence of Pep-1): 6663±173 cpm; proliferative response (Δcpm) ([4]; GILZ peptide in the absence of Pep-1, listed as GILZ peptide): 6663+/−173 cpm; proliferative response (Δcpm) ([4]; peptide 500 μM in complex with Pep-1, PLP 40 μg/ml, 72 h): 1702+/−217 cpm; proliferative response, in words ([4]; listed as GILZ peptide): greater inhibition than those treated with r-GILZ at all concentrations; GATA-3 mRNA (T-bet and GATA-3 mRNA; listed as GILZ-peptide): up-regulated; T-bet mRNA (T-bet and GATA-3 mRNA; listed as GILZ-peptide): down-regulated; average proliferative response of unstimulated CD4+ splenocytes ([5]; mice treated on day 12): 1,823±532 |
| r-GILZ: recombinant glucocorticoid induced leucine zipper protein (Abnova; OriGene with C-terminal DDK) | significantly decreased; also recorded: significantly lower | elevated | significantly decreased; also recorded: significantly lower | significantly lower | suppresses | elevated | significantly lower | significantly higher | significantly higher | significantly decreased | significantly decreased proliferative response | up-regulated; also recorded: elevated | down-regulated; also recorded: significantly decreased | 16,880±264 cpm | 2,037±603 | proliferative response (Δcpm) ([4]; r-GILZ 200 ng with Pep-1, PLP 40 μg/ml, 72 h): 4658+/−266 cpm |
